For one assay, the target named is T1, ASA-acetylated COX-2 (Homo sapiens, UniProt P35354).
T1 construct: made in house; host or cells: Sf9 insect cells (microsomal fractions), then treated with about 2 mM ASA
T1 sequence (P35354 18-604): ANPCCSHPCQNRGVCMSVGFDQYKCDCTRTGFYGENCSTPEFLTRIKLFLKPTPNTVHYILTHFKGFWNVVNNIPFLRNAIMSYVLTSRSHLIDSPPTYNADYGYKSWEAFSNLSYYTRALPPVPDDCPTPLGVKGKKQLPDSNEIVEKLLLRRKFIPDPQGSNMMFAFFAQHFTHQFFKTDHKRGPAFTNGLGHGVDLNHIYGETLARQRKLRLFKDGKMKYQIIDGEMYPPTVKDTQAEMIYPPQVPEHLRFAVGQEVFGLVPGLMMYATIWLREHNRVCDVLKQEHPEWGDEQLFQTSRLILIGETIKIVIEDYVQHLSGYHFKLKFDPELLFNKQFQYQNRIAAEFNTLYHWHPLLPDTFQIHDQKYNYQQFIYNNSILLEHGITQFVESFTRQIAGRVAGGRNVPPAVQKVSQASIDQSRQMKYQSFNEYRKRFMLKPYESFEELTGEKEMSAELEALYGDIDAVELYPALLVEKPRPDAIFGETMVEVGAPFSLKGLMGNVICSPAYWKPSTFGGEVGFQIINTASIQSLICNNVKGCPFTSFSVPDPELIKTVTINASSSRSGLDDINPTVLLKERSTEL
In words: Substrate conversion by ASA-acetylated COX-2. The class given is biochemical. Particulars: C20:4 to 15R-HETE, DHA to 17R-HDHA; mean±S.E.M., n=3. The method, then:
(§1) Human recombinant COX-2 was overexpressed in Sf9 insect cells (ATCC). The microsomal fractions (˜8 μl) were suspended in Tris (100 mM, pH 8.0) as in (35). ASA was incubated (˜2 mM, 37° C., 30 min) with COX-2 before addition of DHA (10 μM), or in some experiments [1-^14C]-labeled DHA (from American Radiolabeled Chemicals, Inc.), and conversions were monitored in parallel using [1^−14C]-labeled C20:4 (with ASA) (as in FIG. 2; also see text).
Incubations were extracted with deuterium-labeled internal standards (15-HETE and C20:4) for LC-MS-MS analysis as in (33) using a Finnigan LCQ liquid chromatography ion trap tandem mass spectrometer (San Jose, Calif.) equipped with a LUNA C18-2 (150×2 mm×5 μm or 100×2 mm×5 μm) column and a rapid spectra scanning UV diode array detector that monitored UV absorbance ˜0.2 min prior to samples entering the MS-MS. All intact cell incubations and in vivo exudates were stopped with 2 ml cold methanol and kept at −80° C. for >30 minutes. Samples were extracted using C18 solid phase extraction and analyzed using GC-MS (see Table 2) (Hewlett-Packard), thin layer chromatography or tandem liquid chromatography-mass spectrometry (LC-MS-MS). […] Detailed procedures for isolation, quantitation and structural determination of lipid-derived mediators were recently reported (36) and used here essentially as reported for elucidation of novel products.

For assay [1], the system named is PMN infiltration. In words: Zymosan A-induced peritonitis. It counts as in vivo, FVB mice. The method, then:
FIG. 5 depicts Bioimpact properties of omega-3-derived Resolvins. A) Human glioma cells: Inhibition of TNF-stimulated IL-1β transcripts DBTRG-05MG cells 10^6/ml were stimulated with 50 ng/ml of human recombinant TNFα for 16 hours to induce expression of IL-1β transcripts. Concentration dependence with COX-2 products: 17-HDHA (n), 13-HDHA (l)and di-/tri-HDHA (n). […] (insets) Results are representative of RT-PCR gels of MG cells exposed to 100 nM of 13-HDHA or 17-HDHA and graphed after normalization of the IL-1β transcripts using GAPDH. B) Influence of eicosanoids and docosanoids on fMLP-induced neutrophil migration across micovascular endothelial monolayers Neutrophils (1×10^6 cells/monolayer) were exposed to vehicle containing buffer, or indicated concentrations of aspirin-triggered LXA4 analog (closed diamonds) 5S,12,18R-triHEPE (closed squares), 17R-HDHA (closed circles) or 13-HDHA (closed triangles) for 15 minutes at 37° C. Neutrophils were then layered on HMVEC monolayers and stimulated to transmigrate by a 10^−8 M fMLP gradient for 1 hr at 37° C. Transmigration was assessed by quantitation of the neutrophil marker myeloperoxidase. Results are presented as mean±SEM number of PMN (n=8-12 monolayers per condition). C) Reduction of PMN in murine peritonitis and skin pouch peritonitis: Compounds (100 ng in 120 μL sterile saline) were injected by intravenous bolus injection into the mouse tail vein and followed by 1 ml zymosan A (1 mg/ml) into the peritoneum. Peritoneal lavages were collected (2 h) and cell types were enumerated.
Human PMN transendothelial migration was quantitated by monitoring myeloperoxidase (MPO) an azurophilic granule marker as in (34, 37). Inflammatory exudates were initiated with intrapouch injection of recombinant mouse TNFα (100 ng/pouch; R&D Systems) into dorsal air pouches (10) of 6-8 wk male FVB mice fed laboratory rodent diet 5001 (Lab Diet, Purina Mills) containing less than 0.25% arachidonic acid, 1.49% EPA and 1.86% DHA followed by ASA (500 μg) at 3.5 h and 300 μg DHA/pouch at 4 h post-TNFα injection. At 6 h (within the resolution phase), pouches were lavaged (3 ml saline) and exudate cells were enumerated Inhibition of TNFα stimulated (100 ng/pouch) PMN infiltration with i.v. tail injection of either 17R-HDHA (as prepared with COX-2 vide infra), 5S,12,18R-HEPE, or a 15-epi-LXA4 analog were determined with pouch lavages taken at 4 h. Peritonitis was performed using 6 to 8-week-old FVB male mice (Charles River Laboratories) fed laboratory Rodent Diet 5001 (Purina Mills) that were anesthetized with isoflurane, and compounds to be tested (125 μl) were administered intravenously. Zymosan A in 1 ml (1 mg/ml) was injected ˜1-1.5 min later in the peritoneum. Each test compound (100 ng/incubation, i.e. 17R-HDHA in ethanol) or vehicle alone was suspended in ˜5 μl and mixed in sterile saline 120 μl. Two hours after the intraperitoneal injections, and in accordance with the Harvard Medical Area Standing Committee on Animals protocol #02570, mice were euthanized and peritoneal lavages rapidly collected for enumeration.
Peritonitis was induced in 6 to 8 week old male FVB mice by peritoneal injection of 1 mg Zymosan A. Compounds 4,17S and 10,17S-diHDHA were injected by intravenous bolus injection, 1.5 minutes before Zymosan A treatment. Two hours after induction of peritonitis, rapid peritoneal lavages were collected and cell type enumeration was performed.

For assay [2], the system named is PMN infiltration. In words: Zymosan A-induced peritonitis. It counts as in vivo, FVB mice. Particulars: dose increased to 200 ng, intravenous bolus.
The subject of the next assay is leukocyte infiltration. In words: TNFα-induced dorsal air pouch. It counts as in vivo, FVB mice. Particulars: FIG. 5C.
The next assay has as its target T2, human recombinant COX-2 (Homo sapiens, UniProt P35354).
T2 construct: made in house; host or cells: Sf9 insect cells (microsomal fractions)
T2 sequence (P35354 18-604): T1 sequence (P35354 18-604)
The assay can be described thus: Impact of NSAIDs on COX-2 conversion of DHA. It counts as biochemical. The method, then: as §1
Incubations were extracted with deuterium-labeled internal standards (15-HETE and C20:4) for LC-MS-MS analysis as in (33) using a Finnigan LCQ liquid chromatography ion trap tandem mass spectrometer (San Jose, Calif.) equipped with a LUNA C18-2 (150×2 mm×5 μm or 100×2 mm×5 μm) column and a rapid spectra scanning UV diode array detector that monitored UV absorbance ˜0.2 min prior to samples entering the MS-MS. All intact cell incubations and in vivo exudates were stopped with 2 ml cold methanol and kept at −80° C. for >30 minutes. Samples were extracted using C18 solid phase extraction and analyzed using GC-MS (see Table 2) (Hewlett-Packard), thin layer chromatography or tandem liquid chromatography-mass spectrometry (LC-MS-MS). Also, a Chiralcel OB-H column (4.6×250 mm; J. T. Baker) was used to determine R and S alcohol configurations of monohydroxy-PUFA using isocratic mobile phase (hexane:isopropanol; 97.5:2.5, vol:vol, with a 0.6 ml/min flow rate). Detailed procedures for isolation, quantitation and structural determination of lipid-derived mediators were recently reported (36) and used here essentially as reported for elucidation of novel products.
Results are the mean±SEM, n=3. Products were extracted, identified, and quantitated using deuterium internal standards and LC-MS-MS (see Methods).

In assay [3] the test system is thromboxane and prostanoids. The assay can be described thus: Thromboxane and prostanoid production in air pouch exudates. It counts as in vivo, FVB mice. The following applies: ASA 500 μg per pouch.
Source text: It is noteworthy that the Lab Diet 5001 used to feed these mice contained 1.86% DHA and 1.49% EPA with <0.25% arachidonic acid (Purina Mills).

As to `CCCCC/C=C\C/C=C\C/C=C\C/C=C\CCCC(=O)O` [C20:4, arachidonic acid], on ASA-acetylated COX-2, the substrate conversion is reported as 67%±5%.

Take `CCC=CCC(O)C=CC=CCC=CCC=CC=CC(O)CCC(=O)O` (stereo not drawn) [4,17S-diHDHA]: the “potency relative to comparator at equal dose” value in the assay with PMN infiltration [1] (PMN/leukocyte infiltration, FIG. 16 and FIG. 18) is reported as “approximately half as potent as 10,17-docosatriene”. Moreover, the “inhibition of PMN/leukocyte infiltration” value in the assay on PMN infiltration [1] (i.v. bolus before zymosan A, lavage at 2 h) was “dose-dependent inhibition”. The “effectiveness relative to 10,17-docosatriene” value in the assay on PMN infiltration [2] was “essentially equally effective”.

As to `CC[C@@H](O)/C=C/C=C\C[C@@H](O)/C=C/C=C/C=C\[C@@H](O)CCCC(=O)O` [EPA-derived 5,12,18R series product], the “prevention of leukocyte diapedesis and exudate formation relative to 15-epi-lipoxin A4 stable analog” value with leukocyte infiltration is recorded as “as effective as a potent stable analog of 15-epi-lipoxin A4”.

As for `CC(=O)Oc1ccccc1C(=O)O` [ASA, aspirin], the “% Increase of 17-HDHA” value at human recombinant COX-2 (NSAID incubated 30 min with COX-2, ASA 2 mM, indomethacin 200 μM, acetaminophen 500 μM, NS398 100 μM, mean±SEM, n=3) is on record as 97.8 ± 2.0%. Moreover, on human recombinant COX-2 (read-out: % Inhibition of 13-HDHA), the inhibition (commonly how much of the control response was suppressed) at 2000 µM amounted to 85.7 ± 5.6%. In addition, the “in vivo production of thromboxane and prostanoids” value in assay [3] is reported as “completely inhibited”.

For the origin of these results see US8933270B2, “Use of docasatrienes, resolvins, and their stable analogs in the treatment of airway diseases and asthma” (The Brigham and Women's Hospital, Inc., priority 2002, dated 2015).
